From ChEMBL document CHEMBL5380800, “Discovery of Small-Molecule Autophagy Inhibitors by Disrupting the Protein-Protein Interactions Involving Autophagy-Related 5” (J Med Chem, 2023)
Activity calls are given as the source filed them. The calls are words filed in the database; no cut-off is given here.

Tests used:
[1] = system: THP-1; experiment: Downregulation of LC3-II protein level in human THP-1 cells at 5 to 40 uM incubated for 6 hrs in presence of rapamycin/chloroquine by Western blot analysis; type: functional, cell-based; conditions: dose 5-40 µM
[2] = system: COS-7; experiment: Downregulation of LC3-II protein level in African green monkey COS-7 cells at 1.25 to 20 uM incubated for 6 hrs by Western blot analysis; type: functional, cell-based; conditions: Chlorocebus aethiops, dose 1.25-20 µM
[3] = system: COS-7; experiment: Inhibition of autophagy in African green monkey COS-7 cells assessed as effect on LC3 level by flow cytometry analysis; type: toxicity, cell-based; conditions: chlorocebus aethiops, cos-7, 40 µM
[4] = Inhibition of ATG5-TECAIR (unknown origin) protein protein interaction expressed in Escherichia coli BL21 (DE3) by HTRF method; parameters: species or system Homo sapiens; conditions: read-out: IC50
[5] = Inhibition of ATG5-ATG16L1 (unknown origin) protein protein interaction expressed in Escherichia coli BL21 (DE3) by HTRF method; parameters: species or system Homo sapiens; conditions: read-out: IC50
[6] = system: U-937; experiment: Downregulation of LC3-II protein level in human U-937 cells at 5 to 40 uM incubated for 6 hrs in presence of rapamycin/chloroquine by Western blot analysis; type: functional, cell-based; conditions: dose 5-40 µM
[7] = system: COS-7; experiment: Inhibition of autophagy in African green monkey COS-7 cells at 20 uM by flow cytometry analysis relative to control; type: functional; conditions: Chlorocebus aethiops

With `O=C(O)c1ccc(N2C(=O)/C(=C/c3ccc(-c4ccc([N+](=O)[O-])cc4)o3)C=C2c2ccccc2)cc1` the Activity [1] was “Active”, the Activity [2] was “Active” and the “inhibition (INH)” value [3] was “Dose-Dependent Effect”. The IC50 [4] was 1700 nM, the IC50 [5] was 1100 nM and the Activity [6] was “Active”. The inhibition at 20 µM [7] was 7.16%.
